{"source": "patent US20140271657A1", "about": "“COMBINATORIAL COMPOSITIONS AND METHODS OF TREATING HEMOGLOBINOPATHIES” (CHILDREN'S MEDICAL CENTER CORPORATION, priority 2011, published 2014)", "key": {"human γ-globin genes": {"tested_on": "human γ-globin genes", "assay": "Expression of human γ-globin genes monitored by qRT-PCR in β-YAC mice before and after drug treatment", "assay_type": "in vivo, mouse", "source_text": "The wild-type β-globin locus transgenic (β-YAC) mouse strain was kindly provided by K. Peterson and was created with the insertion of a 213 kb YAC containing the entire human β-globin locus (30). This β-YAC line contains three intact copies of the human β-globin locus integrated at a single genomic locus. The A20 β-YAC line harboring a single copy of a 150 kb β-globin locus YAC was kindly provided by K. Gaensler and M. Groudine (31). These transgenes were maintained in the hemizygous state. C57BL/6 mice containing a Bcl11a floxed allele (with loxP sites flanking exon 1) were created through gene targeting approaches (G.C.I. et al, in preparation). To obtain the Bcl11a conditional knockout mice, the Bcl11a^fl/fl mice were crossed with various Cre strains, including EpoR-GFP Cre knock-in mice (13), Vav-Cre (32) and Mx1-Cre (33) transgenic mice. The humanized mouse model of sickle cell anemia that expresses exclusively human sickle hemoglobin (HbS) was obtained from The Jackson Laboratory and has been described and characterized previously (19). These mice contain the human sickle transgene [Tg(Hu-miniLCRα1^Gγ^Aγδβ^S)Hba^0//Hba^0Hbb^0//Hbb^0] and knockout of both the murine α- and β-globin genes (hereafter called SCD mice). The human sickle transgene were created by three DNA fragments consisting of a 6.5-kb mini-LCR, a 1.5-kb Pst I fragment containing the human α1-globin gene, and a 39-kb Kpn I fragment containing the human ^Gγ, ^Aγ, δ, and β^S globin genes in their normal genomic context (19). No significant difference in globin gene expression and SCD phenotypes were observed between mice that are knockout of one copy or both copies of murine α-globin genes. To generate BCL11A knockout SCD mice, the inventors introduced the EpoR-Cre and Bcl11a^fl/fi alleles into the SCD transgenic knockout mice (hereafter called SCD/Bcl11a^−/− mice). Mice containing both the human sickle transgene and at least one copy of murine β-globin gene were used as controls. PolyI:ployC (pIpC, SIGMA®) was prepared at 2 mg/ml in PBS and administrated via intraperitoneal (i.p.) injection daily at a dose of 25 μg/kg for 7 days. […]\nFACS-sorted CD71^+Ter1 19^+ erythroid cells was isolated from bone marrows of 6-week old mice. […] Model-based expression value of probe sets were calculated by dChip from raw AFFYMETRIX® CEL files, and QQ-normalization was then applied to normalize the expression value distribution among multiple arrays (41). […] For quantitative RT-PCR analysis, RNA was extracted using a QIAamp® RNA Blood Mini Kit or an RNeasy® Plus Mini Kit (QIAGEN®). Quantified RNA was reverse-transcribed using an iScript cDNA Synthesis Kit (BIO-RAD®). cDNA samples were analyzed in triplicate with the iQ™ SYBR® Green Supermix using the iCycler Real-Time PCR Detection System (BIO-RAD®). […]"}, "HDAC": {"tested_on": "HDAC", "details": "cited from earlier work; for concentration at which HDAC is inhibited: in vitro or in vivo, literature"}, "acetyl-H3 (H3ac)": {"tested_on": "acetyl-H3 (H3ac)", "assay": "Western blot of acetyl-H3 (H3ac) in whole-cell extracts of bone marrow cells of treated mice", "assay_type": "in vivo, mouse", "details": "after SAHA treatment, control and Bcl11a−/− (EpoR-Cre+) mice", "source_text": "(§1) The wild-type β-globin locus transgenic (β-YAC) mouse strain was kindly provided by K. Peterson and was created with the insertion of a 213 kb YAC containing the entire human β-globin locus (30). This β-YAC line contains three intact copies of the human β-globin locus integrated at a single genomic locus. The A20 β-YAC line harboring a single copy of a 150 kb β-globin locus YAC was kindly provided by K. Gaensler and M. Groudine (31). These transgenes were maintained in the hemizygous state. C57BL/6 mice containing a Bcl11a floxed allele (with loxP sites flanking exon 1) were created through gene targeting approaches (G.C.I. et al, in preparation). To obtain the Bcl11a conditional knockout mice, the Bcl11a^fl/fl mice were crossed with various Cre strains, including EpoR-GFP Cre knock-in mice (13), Vav-Cre (32) and Mx1-Cre (33) transgenic mice. The humanized mouse model of sickle cell anemia that expresses exclusively human sickle hemoglobin (HbS) was obtained from The Jackson Laboratory and has been described and characterized previously (19). […]\nExpression of BCL11A was assessed using antibody 14B5 and 15E3AC11 (Abcam Inc.), as described previously (9). […] GAPDH (sc-25778, Santa Cruz Biotechnology Inc.) was analyzed as a loading control."}, "[1]": {"tested_on": "acetyl-H3 within γ-promoter regions", "assay": "ChIP of chromatin acetyl-H3 within human globin loci in CD71+Ter119+ BM cells of treated β-YAC mice", "assay_type": "in vivo, mouse", "details": "after SAHA treatment", "source_text": "as §1\nChIP was performed as previously described (10). […] Precipitated DNA samples were quantified using primers designed to amplify several control regions within the human β-globin locus as indicated below the graph. […]"}}, "data": [{"compound": "Nc1ncn([C@H]2C[C@H](O)[C@@H](CO)O2)c(=O)n1", "note": "[5-azaD, 5-aza-2′-deoxycytidine]", "values": [{"measurement": "interaction of 5-azaD treatment with BCL11A loss on γ-globin mRNA", "setting": "human γ-globin genes; Bcl11a−/− (EpoR-Cre+) vs control β-YAC mice, 5 mg/kg daily for 5 days i.p., 5 mg/kg", "result": "unexpectedly synergistic"}, {"measurement": "γ-globin mRNA", "setting": "human γ-globin genes; Bcl11a−/− (EpoR-Cre+) β-YAC mice, 5-azaD 5 mg/kg daily for 5 days i.p.", "result": 37.9, "unit": "%"}, {"measurement": "change in γ-globin mRNA", "setting": "human γ-globin genes; normal (control, Bcl11a+/+) β-YAC mice, 5-azaD 5 mg/kg daily for 5 days i.p.", "result": "very small increment"}]}, {"compound": "CCC(=O)CCCCC[C@@H]1NC(=O)[C@H]2CCCCN2C(=O)[C@H]([C@@H](C)CC)NC(=O)[C@H](Cc2cn(OC)c3ccccc23)NC1=O", "note": "[Apicidin]", "values": [{"measurement": "concentration at which HDAC is inhibited", "setting": "HDAC", "result": "nanomolar concentrations"}]}, {"compound": "O=C(/C=C/c1cccc(C(=O)NO)c1)NO", "note": "[CBHA, m-carboxy-cinnamic acid bishydroxamic acid]", "values": [{"measurement": "concentration at which HDAC is inhibited", "setting": "HDAC", "result": "micromolar concentration or lower"}]}, {"compound": "C/C=C1\\NC(=O)[C@H]2CSSCC/C=C/[C@H](CC(=O)N[C@H](C(C)C)C(=O)N2)OC(=O)[C@H](C(C)C)NC1=O", "note": "[FR901228]", "values": [{"measurement": "concentration at which HDAC is inhibited", "setting": "HDAC", "result": "micromolar concentrations"}]}, {"compound": "O=C(CCCCCCC(=O)Nc1ccccc1)NO", "note": "[SAHA, suberoylanilide hydroxamic acid]", "values": [{"measurement": "interaction of SAHA with BCL11A loss in derepression of γ-globin mRNA", "setting": "human γ-globin genes; Bcl11a−/− (EpoR-Cre+) vs control β-YAC mice, 25 mg/kg daily i.p. for up to three weeks", "result": "synergized"}, {"measurement": "level of histone H3 acetylation in bone marrow cells", "setting": "acetyl-H3 (H3ac)", "result": "elevated"}, {"measurement": "level of histone H3 acetylation within γ-promoter regions", "setting": "[1]", "result": "elevated"}]}, {"compound": "C=C[C@@H](O)[C@@H]1O[C@H]1/C=C/[C@@H]1O[C@@H]1[C@@H](C)O", "note": "[depudecin]", "values": [{"measurement": "concentration at which HDAC is inhibited", "setting": "HDAC", "result": "micromolar concentrations"}]}, {"compound": "trichostatin A [TSA]", "values": [{"measurement": "inhibition of mammalian HDAC", "setting": "HDAC; literature (Yoshida et al. 1990)", "result": "potent inhibitor"}]}]}
